pIC50: −log10 of the molar value.
How the values were obtained:
[1] = target: T1, Eukaryotic translation initiation factor 2-alpha kinase 3 (Homo sapiens, UniProt Q9NZJ5); assay: Inhibition of PERK (unknown origin) expressed in HEK293 cells assessed as inhibition of phosphorylation of GFP-eIF2 alpha by cell-based TR-FRET assay
T1 sequence (Q9NZJ5 whole entry): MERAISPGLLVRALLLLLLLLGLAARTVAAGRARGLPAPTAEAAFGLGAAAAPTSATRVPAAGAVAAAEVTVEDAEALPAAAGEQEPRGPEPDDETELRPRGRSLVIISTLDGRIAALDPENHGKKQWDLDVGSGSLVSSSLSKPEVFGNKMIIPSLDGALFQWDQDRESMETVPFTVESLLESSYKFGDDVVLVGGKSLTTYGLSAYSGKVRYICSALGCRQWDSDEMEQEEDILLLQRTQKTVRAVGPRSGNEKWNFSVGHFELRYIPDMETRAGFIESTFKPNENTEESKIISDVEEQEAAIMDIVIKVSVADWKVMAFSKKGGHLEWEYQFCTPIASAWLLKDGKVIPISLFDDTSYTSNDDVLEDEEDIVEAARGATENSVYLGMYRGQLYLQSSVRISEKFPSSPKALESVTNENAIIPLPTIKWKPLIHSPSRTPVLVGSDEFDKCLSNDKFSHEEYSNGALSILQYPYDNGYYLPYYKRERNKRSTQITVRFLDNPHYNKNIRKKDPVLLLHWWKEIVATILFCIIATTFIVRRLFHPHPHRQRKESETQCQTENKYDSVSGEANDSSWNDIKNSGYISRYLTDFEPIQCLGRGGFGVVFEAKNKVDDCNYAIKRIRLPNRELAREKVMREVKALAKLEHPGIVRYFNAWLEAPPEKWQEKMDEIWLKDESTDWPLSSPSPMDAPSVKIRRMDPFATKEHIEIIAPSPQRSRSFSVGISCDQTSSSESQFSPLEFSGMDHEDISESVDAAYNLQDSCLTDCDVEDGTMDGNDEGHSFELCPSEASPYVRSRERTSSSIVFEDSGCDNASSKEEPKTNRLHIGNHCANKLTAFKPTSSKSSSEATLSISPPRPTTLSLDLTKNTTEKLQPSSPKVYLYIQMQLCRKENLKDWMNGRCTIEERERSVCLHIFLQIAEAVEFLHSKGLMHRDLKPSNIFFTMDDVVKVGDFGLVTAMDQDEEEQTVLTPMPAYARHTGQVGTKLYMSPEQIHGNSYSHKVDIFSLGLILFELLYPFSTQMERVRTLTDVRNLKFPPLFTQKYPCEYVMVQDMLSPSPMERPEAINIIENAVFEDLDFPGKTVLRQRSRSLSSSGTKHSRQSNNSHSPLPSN

[2] = target: T1, Eukaryotic translation initiation factor 2-alpha kinase 3; assay: Inhibition of recombinant GST-tagged PERK (unknown origin) by LanthaScreen assay

Row | SMILES | pIC50 [1] | pIC50 [2]
1 | COc1cc2ncnc(Nc3ccc4c(c3)CCN4C(=O)Cn3ccc4ccccc43)c2cc1OC | 6.50 | –
2 | COc1cc2ncnc(Nc3ccc4c(c3)CCN4C(=O)Cc3c[nH]c4ccccc34)c2cc1OC | 6.30 | 8.30
3 | COc1cc2ncnc(Nc3ccc4c(c3)CCN4C(=O)Cc3coc4ccccc34)c2cc1OC | < 4.50 | –

The next lines start with the values.

Row | pIC50 [1] | pIC50 [2] | SMILES
4 | 7.60 | 9.20 | COc1cc2ncnc(Nc3ccc4c(c3)CCN4C(=O)Cc3c(C)[nH]c4cc(F)ccc34)c2cc1OC
5 | 7.30 | 9.40 | COc1cc2ncnc(Nc3ccc4c(c3)CCN4C(=O)Cc3cc(F)ccc3F)c2cc1OC
